Laboratory results published in article PMC8878317, “Chemogenomics identifies acetyl-coenzyme A synthetase as a target for malaria treatment and prevention” (Cell Chemical Biology, 2022).

Test system: P. falciparum 3D7 parasites
Experiment: Metabolomic profiling of compound-treated parasites (LC/MS);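 on Metabolite data: 3-Phosphoglycerate: Log2 fold change in abundance versus untreated parasite controls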;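 on Metabolite data: Myo-Inositol: Log2 fold change in abundance versus untreated parasite controls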;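 on Metabolite data: N-Carbamoyl-L-Aspartate: Log2 fold change in abundance versus untreated parasite controls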;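 on Metabolite data: Nicotinate: Log2 fold change in abundance versus untreated parasite controls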
Format: cell-based
Parameters: Metabolite data: dTMP / Metabolite data: GMP / Metabolite data: S-Adenosyl-L-Homocysteine / Metabolite data: 1_3-Bisphosphoglyceric acid: scale not given here
Procedure, shortened: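 Magnetically purified trophozoites (1×10^8 parasites/mL) recovered 1 h in RPMI 1640, incubated a further 2.5 h, quenched in 90% methanol with labeled aspartate. Extracts analysed by reverse-phase C18 LC with negative-mode Orbitrap MS; peak areas normalized to internal standards, blank-subtracted and averaged by condition.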

CCc1nc(N)nc(N)c1-c1ccc(Cl)cc1 [Pyrimethamine]
Metabolite data: 1_3-Bisphosphoglyceric acid: 0
Metabolite data: 2_3-Diphosphoglyceric acid: 0.1448
Metabolite data: 3-Phosphoglycerate: 0.06527
Metabolite data: 4-Aminobutyrate: 0.06366
Metabolite data: 4-Phosphopantothenate: 0.159
Metabolite data: 4-phosphopantetheine: 0
Metabolite data: 5-aminopentanoic acid: 0
Metabolite data: 5-phosphoribosyl-1-pyrophosphate: 0
Metabolite data: 6-Phospho-D-Gluconate: 0.08879
Metabolite data: ADP-D-Glucose: 0.2656
Metabolite data: Acetyl-CoA: 0.1996
Metabolite data: Acetyllysine: 0.2921
Metabolite data: Aconitate: 0.4355
Metabolite data: CDP: 0.1713
Metabolite data: CDP-Ethanolamine: 1.312
Metabolite data: CDP-choline: 0
Metabolite data: CMP: 0.005842
Metabolite data: CTP: -0.1699
Metabolite data: Citrate/Isocitrate: -0.2585
Metabolite data: Cyclic-AMP: 0.06421
Metabolite data: Dihydroorotate: 1.359
Metabolite data: FAD: 0.05439
Metabolite data: FMN: -0.4759
Metabolite data: Fructose-1,6-Bisphosphate: 0.2831
Metabolite data: Fumarate: 0.3378
Metabolite data: GDP: 0.005686
Metabolite data: GMP: 0.1718
Metabolite data: GTP: -0.6779
Metabolite data: Glucose-1/6-Phosphate: 0.1953
Metabolite data: Glutathione Disulfide: 0.3348
Metabolite data: Hexose: 0
Metabolite data: Hydroxyisocaproic acid: 0
Metabolite data: Indole: -0.02333
Metabolite data: Ketoleucine: 0
Metabolite data: L-arginino-succinate: 0
Metabolite data: Lactate: 0.8185
Metabolite data: Malate: 0.5597
Metabolite data: Myo-Inositol: 2.112
Metabolite data: N-Acetyl-Glutamate: 0.1671
Metabolite data: N-Acetyl-L-Alanine: 0.1511
Metabolite data: N-Acetyl-L-Ornithine: 0.1555
Metabolite data: N-Carbamoyl-L-Aspartate: 0.3085
Metabolite data: NAD+: 0.008224
Metabolite data: NADH: 4.9
Metabolite data: NADP+: 0.03009
Metabolite data: NADPH: 1.808
Metabolite data: Nicotinate: 0.1972
Metabolite data: Octulose 8/1-Phosphate: -0.1128
Metabolite data: Orotate: 0.09092
Metabolite data: PD: 0.177
Metabolite data: PE: -0.01685
Metabolite data: PEEK: 0
Metabolite data: Phenol Red: 0
Metabolite data: Pyroglutamic acid: 0.09576
Metabolite data: S-Adenosyl-L-Homocysteine: 0.08183
Metabolite data: S-methyl-5'-thioadenosine: 0.0579
Metabolite data: SD: 0.04153
Metabolite data: Sedoheptulose Bisphosphate: 0.1986
Metabolite data: UDP: 0.2702
Metabolite data: UDP-D-Glucose: 0.138
Metabolite data: UDP-D-Glucuronate: 0.02668
Metabolite data: UDP-N-Acetyl-Glucosamine: 0.1474
Metabolite data: UMP: 0.1095
Metabolite data: UTP: -0.3099
Metabolite data: a-ketoglutarate: 0.2017
Metabolite data: acetyl-aspartate: 0
Metabolite data: arginine: 0
Metabolite data: asparagine: 0
Metabolite data: aspartate: 0
Metabolite data: biotin: 0
Metabolite data: chlorpropamide: 0
Metabolite data: coenzyme A: 0
Metabolite data: dAMP: -0.3497
Metabolite data: dATP: 0.1703
Metabolite data: dCDP: 0.2805
Metabolite data: dCMP: 0.1423
Metabolite data: dCTP: -0.258
Metabolite data: dGDP/ADP: 0.2431
Metabolite data: dGMP/AMP: -0.07108
Metabolite data: dGTP/ATP: 0
Metabolite data: dTDP: 0.3943
Metabolite data: dTMP: 0.05289
Metabolite data: dTTP: -0.1782
Metabolite data: folate: 0
Metabolite data: glucono-lactone: 0
Metabolite data: glutamate: 0
Metabolite data: glutamine: 0
Metabolite data: glutathione: 0
Metabolite data: histidine: 0
Metabolite data: hydroxyproline/Aminolevulinate: 0
Metabolite data: isoleucine: 0
Metabolite data: leucine: 0
Metabolite data: maleic acid: 0
Metabolite data: methionine: 0
Metabolite data: nicotinamide mononucleotide: 0
Metabolite data: orotidine-5'-phosphate: 0
